Test results taken from publication doi:10.1101/2024.06.10.598330v1 (biorxiv, 2024).

How the values were obtained:
[1] = system: 'Concord' ortholog of 4g02123; assay: MTase-Glo luminescence methyltransferase assay; format: biochemical, Vitis labrusca; conditions: 20 μM SAM, pH 8.0, 37 °C
Vv4g02123 = conditions: 20 μM SAM, pH 8.0, 37 °C; substrate inhibition fit
Vv4g02169 = molecular target: T1, Vv4g02169 (Vitis vinifera, UniProt D7SNV7); assay: MTase-Glo luminescence methyltransferase assay; format: biochemical; conditions: 150 μM SAM, pH 8.0, 37 °C
T1 sequence (D7SNV7 1-364): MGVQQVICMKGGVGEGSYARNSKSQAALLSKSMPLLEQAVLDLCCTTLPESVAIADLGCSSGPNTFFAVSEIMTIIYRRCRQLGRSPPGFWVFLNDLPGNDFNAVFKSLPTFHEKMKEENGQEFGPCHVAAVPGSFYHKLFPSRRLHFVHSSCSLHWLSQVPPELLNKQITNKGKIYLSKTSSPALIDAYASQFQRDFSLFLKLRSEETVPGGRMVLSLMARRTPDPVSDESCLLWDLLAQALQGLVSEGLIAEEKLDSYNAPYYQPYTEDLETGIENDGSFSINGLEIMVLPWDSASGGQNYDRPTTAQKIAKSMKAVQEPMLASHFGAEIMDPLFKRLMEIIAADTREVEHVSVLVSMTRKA

Row | SMILES | Km [1] | Km (Vv4g02123) | Km (Vv4g02169) | Km ([1]; substrate inhibition fit)
1 | CNc1ccccc1C(=O)O [N-methyl AA] | 120 µM | 12 µM | – | –
2 | Nc1ccccc1C(=O)O [anthranilate] | 47 µM | – | 160 µM | –
3 | O=C(O)c1ccccc1 [benzoic acid] | 23 µM | – | – | –
4 | O=C(O)c1ccccc1O [salicylic acid] | – | – | – | 3.8 µM
